Experimental data published in US20190337924A1, “SUBSTITUTED HYDANTOIN AND THIOHYDANTOIN DERIVATIVES AS ANDROGEN RECEPTOR ANTAGONISTS” (Janssen Pharmaceutica NV, priority 2016, published 2019).
Where a name gives a salt, the structure may show the parent alone. Read-outs that look alike come from different tables or passages of the source.

Target: T1, wild-type Androgen Receptor (AR-wt) (Homo sapiens, UniProt P10275)
T1 construct: expressed in transfected cells; host or cells: LNCaP
T1 sequence (P10275 1-920): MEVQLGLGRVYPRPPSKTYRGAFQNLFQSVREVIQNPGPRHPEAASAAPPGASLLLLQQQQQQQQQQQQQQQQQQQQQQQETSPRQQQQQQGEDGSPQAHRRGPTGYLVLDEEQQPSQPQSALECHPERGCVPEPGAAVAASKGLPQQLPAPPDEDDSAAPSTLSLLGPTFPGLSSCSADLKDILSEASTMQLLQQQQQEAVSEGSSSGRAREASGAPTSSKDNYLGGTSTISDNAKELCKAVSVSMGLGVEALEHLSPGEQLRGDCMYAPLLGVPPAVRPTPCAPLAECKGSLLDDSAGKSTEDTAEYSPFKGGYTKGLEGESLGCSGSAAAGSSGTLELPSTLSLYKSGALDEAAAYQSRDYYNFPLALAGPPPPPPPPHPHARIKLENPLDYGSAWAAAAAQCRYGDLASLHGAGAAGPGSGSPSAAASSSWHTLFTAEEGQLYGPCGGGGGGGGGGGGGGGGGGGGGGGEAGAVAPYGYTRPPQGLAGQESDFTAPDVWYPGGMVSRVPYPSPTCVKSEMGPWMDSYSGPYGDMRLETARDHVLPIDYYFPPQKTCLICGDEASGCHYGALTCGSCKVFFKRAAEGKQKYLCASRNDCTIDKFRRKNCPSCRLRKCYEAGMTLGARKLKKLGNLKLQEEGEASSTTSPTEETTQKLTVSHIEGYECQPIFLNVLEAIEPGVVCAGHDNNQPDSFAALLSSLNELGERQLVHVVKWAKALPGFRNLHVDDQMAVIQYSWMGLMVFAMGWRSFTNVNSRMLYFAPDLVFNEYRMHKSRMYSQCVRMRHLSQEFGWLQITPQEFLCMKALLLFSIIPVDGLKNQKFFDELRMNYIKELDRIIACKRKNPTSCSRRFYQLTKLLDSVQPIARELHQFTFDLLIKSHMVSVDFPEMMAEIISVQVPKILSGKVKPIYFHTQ
Assay: AR reporter assay, LNCaP-AR-wt ANT (antagonist mode)
Format: cell-based
Conditions: for Emax: read-out: LNCaP-AR-wt ANT MAX % Inh
Source text: LNCaP AR (cs) and LNCaP F876L luciferase cell lines were generated by transduction of each cell line (description of cell line generation Joseph J D, Lu N, Qian J, Sensintaffar J, Shao G, Brigham D, Moon M, Maneval E C, Chen I, Darimont B, Hager J H. A clinically relevant androgen receptor mutation confers resistance to second-generation antiandrogens enzalutamide and ARN-509. Cancer Discov 2013; 3:1020-1029) with an Androgen Response Element Firefly Luciferase lentiviral construct at an MOI (multiplicity of infection) of 50 following the manufacturer's instructions (Qiagen). A stable pooled-population cell line was generated using puromycin (Life Technologies) selection at 1:10,000 v/v. The protocol below was used for both cell lines and for testing of the compounds of Formula (I) of the present invention.
LNCaP cells were grown to about 80% confluence, media removed and cells rinsed in Hank's balanced salt solution prior to separation from the plate with 0.05% Trypsin EDTA. Cells were lifted and trypsin negated in complete CSS (charcoal stripped serum) culture media. CSS was maintained on cells for 24 h prior to assay, at which time 5,000 cells/[…] were seeded in Greiner 384 well White/White Tissue Culture Treated Plates and incubated for a further 1-2 hours at 37° C., 5% CO2, prior to addition of 10 μL of 4× Test Compounds (compounds described herein) or Assay Controls (all diluted in complete media containing 10% css). A further 10 μL of 4× R-1881 Agonist Challenge (antagonist assay) or Buffer (agonist assay) was then added (all diluted in complete media containing 10% css). Agonist challenge was at 400 pM for WT assay and 600 pM for F876L assay. Plates containing cells and compounds herein were incubated for a further 20-24 hours at 37° C., 5% CO2 before addition of 40 μL/well of Steady-Glo Luciferase Assay System Reagent (Promega#E2520). After 1 h, plates were read for luminescence on a BMG Pherastar.
Agonist challenge: R-1881 (Metribolone)—Agonist
Antagonist control (low control): 5-(5-(4-((1-Methylpiperidin-4-yl)oxy)phenyl)-8-oxo-6-thioxo-5,7-diazaspiro[3.4]octan-7-yl)-3-(trifluoromethyl)picolinonitrile (WO 2011/103202, EXAMPLE 19, Compound 129, CAS #1332390-06-3).
(1−(Sample RLU−Ave Low Control RLU[10 μM Antagonist Control])/(Ave High Control RLU [400 pM R-1881]−Ave Low Control RLU[10 μM Antagonist Control]))*100.
EC/IC50 calculations were achieved utilizing calculated RLU data and data fitting macros. Data were fit using least-squares methods to the following formula: […]
As used herein: • pIC50 is defined as −Log10(IC50 expressed in [Molar]). • pEC50 is defined as −Log10(EC50 expressed in [Molar]). • MAX % Inh is defined as the maximum % inhibition of R1881 control response observed for a compound over the tested concentration range. • MAX % Stim is defined as the maximum % stimulation (agonist response) observed for a compound over the tested concentration range. • LNCaP-AR-wt ANT refers to the reporter assay using LNCaP cells stably transfected with the Androgen Response Element Firefly Luciferase lentiviral construct and wild-type Androgen Receptor (AR-wt) in Antagonist mode. • LNCaP-AR-wt AG refers to the reporter assay using LNCaP cells stably transfected with the Androgen Response Element Firefly Luciferase lentiviral construct and wild-type Androgen Receptor (AR-wt) in Agonist mode. • LNCaP-AR-F876L ANT refers to the reporter assay using LNCaP cells stably transfected with the Androgen Response Element Firefly Luciferase lentiviral construct and F876L mutant Androgen Receptor (AR-F876L) in Antagonist mode. • LNCaP-AR-F876L AG refers to the reporter assay using LNCaP cells stably transfected with the Androgen Response Element Firefly Luciferase lentiviral construct and F876L mutant Androgen Receptor (AR-F876L) in Agonist mode.

[1] = antagonist mode, 400 pM R-1881 challenge, luciferase reporter, -Log10(IC50 in Molar), read-out: LNCaP-AR-wt ANT pIC50 (converted)

| Compound | IC50 [nM] | Emax [%] | IC50 [1] [nM] |
| --- | --- | --- | --- |
| CN1CCC(Oc2ccc(N3C(=S)N(c4ccc(C#N)c(C(F)(F)F)c4)C(=O)C34CCC4)cn2)CC1 [Compound 14, 4-(5-(6-((1-Methylpiperidin-4-yl)oxy)pyridin-3-yl)-8-oxo-6-thioxo-5,7-diazaspiro[3.4]octan-7-yl)-2-(trifluoromethyl)benzonitrile] | 89.1 | 104 | – |
| CC1(C)C(=O)N(c2ccc(C#N)c(Cl)c2)C(=S)N1c1ccc(OC2CCNCC2)cc1 [Compound 7, 2-Chloro-4-(4,4-dimethyl-5-oxo-3-(4-(piperidin-4-yloxy)phenyl)-2-thioxoimidazolidin-1-yl)benzonitrile hydrochloride] | 61.7 | 101 | – |
| N#Cc1ccc(N2C(=O)C3(CCC3)N(c3ccc(OC4CCNCC4)nc3)C2=S)cc1Cl [Compound 23, 2-Chloro-4-(8-oxo-5-(6-(piperidin-4-yloxy)pyridin-3-yl)-6-thioxo-5,7-diazaspiro[3.4]octan-7-yl)benzonitrile hydrochloride] | 67.6 | 105 | – |
| CN1CCC(Oc2ccc(N3C(=S)N(c4ccc(C#N)c(Cl)c4)C(=O)C3(C)C)cn2)CC1 [Compound 10, 2-Chloro-4-(4,4-dimethyl-3-(6-((1-methylpiperidin-4-yl)oxy)pyridin-3-yl)-5-oxo-2-thioxoimidazolidin-1-yl)benzonitrile hydrochloride] | 63.1 | 102 | – |
| CC1(C)C(=O)N(c2ccc(C#N)c(C(F)(F)F)c2)C(=S)N1c1ccc(OC2CCNCC2)cc1 [Compound 1, 4-(4,4-Dimethyl-5-oxo-3-(4-(piperidin-4-yloxy)phenyl)-2-thioxoimidazolidin-1-yl)-2-(trifluoromethyl)benzonitrile] | 75.9 | 106 | – |
| CC1(C)C(=O)N(c2ccc(C#N)c(Cl)c2)C(=S)N1c1ccc(OC2CCNCC2)nc1 [Compound 9, 2-Chloro-4-(4,4-dimethyl-5-oxo-3-(6-(piperidin-4-yloxy)pyridin-3-yl)-2-thioxoimidazolidin-1-yl)benzonitrile hydrochloride] | 57.5 | 102 | – |
| N#Cc1ccc(N2C(=O)C3(CCC3)N(c3ccc(OC4CCNCC4)cc3)C2=S)cc1Cl [Compound 21, 2-Chloro-4-(8-oxo-5-(4-(piperidin-4-yloxy)phenyl)-6-thioxo-5,7-diazaspiro[3.4]octan-7-yl)benzonitrile] | – | 106 | 331 |
| CN1CCC(Oc2ccc(N3C(=S)N(c4ccc(C#N)c(Cl)c4)C(=O)C34CCC4)cn2)CC1 [Compound 24, 2-Chloro-4-(5-(6-((1-methylpiperidin-4-yl)oxy)pyridin-3-yl)-8-oxo-6-thioxo-5,7-diazaspiro[3.4]octan-7-yl)benzonitrile hydrochloride] | 95.5 | 102 | – |
| CN1CCC(Oc2ccc(N3C(=S)N(c4ccc(C#N)c(Cl)c4)C(=O)C34CCC4)cc2)CC1 [Compound 22, 2-Chloro-4-(5-(4-((1-methylpiperidin-4-yl)oxy)phenyl)-8-oxo-6-thioxo-5,7-diazaspiro[3.4]octan-7-yl)benzonitrile] | 245 | 98.4 | – |
| CN1CCC(Oc2ccc(N3C(=S)N(c4ccc(C#N)c(C(F)(F)F)c4)C(=O)C3(C)C)cc2)CC1 [Compound 2, 4-(4,4-Dimethyl-3-(4-((1-methylpiperidin-4-yl)oxy)phenyl)-5-oxo-2-thioxoimidazolidin-1-yl)-2-(trifluoromethyl)benzonitrile hydrochloride] | 97.7 | 104 | – |
| CC1(C)C(=O)N(c2ccc(C#N)c(C(F)(F)F)c2)C(=S)N1c1cnc(OC2CCNCC2)nc1 [Compound 5, 4-(4,4-Dimethyl-5-oxo-3-(2-(piperidin-4-yloxy)pyrimidin-5-yl)-2-thioxoimidazolidin-1-yl)-2-(trifluoromethyl)benzonitrile] | 170 | 101 | – |
| N#Cc1ccc(N2C(=O)C3(CCC3)N(c3ccc(OC4CCNCC4)cc3)C2=S)cc1C(F)(F)F [Compound 11, 4-(8-Oxo-5-(4-(piperidin-4-yloxy)phenyl)-6-thioxo-5,7-diazaspiro[3.4]octan-7-yl)-2-(trifluoromethyl)benzonitrile] | 331 | 105 | – |
| CC1(C)C(=O)N(c2ccc(C#N)c(C(F)(F)F)c2)C(=S)N1c1ccc(OC2CCNCC2)nc1 [Compound 3, 4-(4,4-Dimethyl-5-oxo-3-(6-(piperidin-4-yloxy)pyridin-3-yl)-2-thioxoimidazolidin-1-yl)-2-(trifluoromethyl)benzonitrile hydrochloride] | 46.8 | 103 | – |
| COc1cc(N2C(=O)C3(CCC3)N(c3ccc(OC4CCN(C)CC4)cc3)C2=S)ccc1C#N [Compound 19, 2-Methoxy-4-(5-(4-((1-methylpiperidin-4-yl)oxy)phenyl)-8-oxo-6-thioxo-5,7-diazaspiro[3.4]octan-7-yl)benzonitrile] | – | 105 | 141 |
| CN1CCC(Oc2ccc(N3C(=S)N(c4ccc(C#N)c(C(F)(F)F)c4)C(=O)C34CCC4)cc2)CC1 [Compound 12, 4-(5-(4-((1-Methylpiperidin-4-yl)oxy)phenyl)-8-oxo-6-thioxo-5,7-diazaspiro[3.4]octan-7-yl)-2-(trifluoromethyl)benzonitrile] | 324 | 104 | – |
| CN1CCC(Oc2ccc(N3C(=S)N(c4ccc(C#N)c(Cl)c4)C(=O)C3(C)C)cc2)CC1 [Compound 8, 2-Chloro-4-(4,4-dimethyl-3-(4-((1-methylpiperidin-4-yl)oxy)phenyl)-5-oxo-2-thioxoimidazolidin-1-yl)benzonitrile hydrochloride] | 81.3 | 103 | – |
| N#Cc1ccc(N2C(=O)C3(CCC3)N(c3cnc(OC4CCNCC4)nc3)C2=S)cc1C(F)(F)F [Compound 15, 4-(8-Oxo-5-(2-(piperidin-4-yloxy)pyrimidin-5-yl)-6-thioxo-5,7-diazaspiro[3.4]octan-7-yl)-2-(trifluoromethyl)benzonitrile] | – | 102 | 158 |
